# Assay results reported in a melting point compilation (Tetko et al.).
row,Structure (SMILES),melting point
1,O=C1NC(=O)N(CCC2=CCCCC2)C1=O,127 to 129 °C
2,CC(C)C1(C(=O)O)CC1,54 to 56 °C
3,COC(=O)Cn1nc2ccc(Cl)nn2c1=O,158 to 160 °C
4,Cc1coc(-c2ccc(C)c(N)c2)n1,114 to 116 °C
5,Nc1cccc(-n2c(O)c(O)n(C3CC3)c2=O)c1,164 to 166 °C
6,CC(C)(C)NCCS(C)(=O)=O,39 to 41 °C
7,CC(C)(C)OC(=O)NNC(=O)OC(C)(C)C,123 to 126 °C
8,C#CCOc1ccccc1C=O,70 to 72 °C
9,N#Cc1cc(C(=O)C(Cl)(Cl)Cl)c[nH]1,129 to 131 °C
10,O=C(C1CCNCC1)N1CCc2ccccc21,67 to 69 °C
11,Cc1ccc(S(N)(=O)=O)cc1C,117 to 119 °C
12,COc1cc(C)ccc1OCC(=O)O,118 to 120 °C
13,COc1ccc(Cn2ncc(C)c2N)cc1OC,98 to 100 °C
14,Cc1c(Cl)ccc2ccc(=O)[nH]c12,269 to 271 °C
15,Cc1cc(C(=O)N2CCCC2)ccc1N,124 to 126 °C
16,CCC(=O)NN,24 to 26 °C
17,Nc1ccc(Cl)cc1-c1nc(C2CCCC2)no1,107 to 109 °C
18,CC(=O)N1CCC(C)(C(=O)O)C1 (centres undefined),120 to 122 °C
19,NN=c1ccc(C(N)=O)n[nH]1,251 to 253 °C
20,Cn1c(S)nc2ccsc2c1=O,313 to 315 °C

row,Structure (SMILES),melting point
1,O=C(O)CCCNS(=O)(=O)c1ccc2c(c1)CCCC2,130 to 132 °C
2,CCN1CCN(c2ccc(N)cc2)CC1,70 to 72 °C
3,Nc1ccccc1Sc1nncs1,109 to 111 °C
4,O=C(O)c1ccc(CS(=O)(=O)c2ccccc2)cc1,297 to 299 °C
5,O=C(Nc1cc(Cl)ccc1Cl)C1CCCCN1 (centres undefined),127 to 129 °C
6,O=S(=O)(NC1CCCNC1)c1cccc(F)c1 (centres undefined),137 to 139 °C
7,CN(C)C(=O)N1CCC(C(=O)O)CC1,146 to 148 °C
8,CCOc1cc(F)ccc1[N+](=O)[O-],31 to 33 °C
9,CCOc1ccc(C(=O)N2CCCC(C(=O)O)C2)cc1OCC (centres undefined),189 to 191 °C
10,CC1(C)CCCCC1=CC(=O)O,89 to 91 °C
11,Cc1cc(Br)c(C)c(S(=O)(=O)Cl)c1,163 to 165 °C
12,Nc1ccc(C(=O)Nc2cccnc2)cc1,212 to 214 °C
13,Cc1sc(N)nc1-c1ccc(F)c(F)c1,135 to 137 °C
14,Nc1cccnc1Nc1ccccc1,135 to 137 °C
15,c1cncc(-c2ncc[nH]2)c1,208 to 210 °C
16,CCC(=O)N(c1nnc(S)s1)C1CC1,195 to 197 °C
17,COc1ccccc1SCC(=O)NN,109 to 111 °C
18,Cc1ccc(-c2nc(C(=O)O)cs2)o1,194 to 196 °C
19,CCc1c(C(=O)O)cnn1C,144 to 146 °C
20,Cc1cc(F)ccc1CO,44 to 46 °C

row,Structure (SMILES),melting point
1,NC(=O)CCSc1ccccc1F,84 to 86 °C
2,O=C(O)c1cc(-c2ccc3c(c2)CCO3)no1,235 to 237 °C
3,C1=C(c2c[nH]c3ncccc23)CCNC1,181 to 183 °C
4,Cn1cc(N2C(=O)C=CC2=O)cn1,151 to 153 °C
5,COc1cc(C=O)cc(OC)c1OCC(N)=O,165 to 167 °C
6,Cc1cc(/C=C/C(=O)O)c(C)n1-c1nccs1,160 to 162 °C
7,CC(Oc1ccc(F)cc1Br)C(=O)O (centres undefined),87 to 89 °C
8,Cc1ccc(C(=O)NCC(=O)O)cc1C,160 to 162 °C
9,CC(N)C(=O)Nc1ccc(Cl)cc1 (centres undefined),84 to 86 °C
10,COc1ccc(Cn2c(N)nc3ccccc32)cn1,173 to 175 °C
11,CCC(Oc1ccccc1C)C(=O)O (centres undefined),49 to 51 °C
12,O=C(O)c1cccc(OCc2cccc(Cl)c2)c1,144 to 146 °C
13,CC(CC(N)=NO)N(C)C(=O)OC(C)(C)C (centres undefined),102 to 104 °C
14,Nc1cnn(-c2ccccn2)c1,79 to 81 °C
15,Cc1ccc(-c2nc(N)sc2-c2ccc(C)cc2)cc1,153 to 155 °C
16,NNS(=O)(=O)CCc1ccccc1,62 to 64 °C
17,COC1CCN(C(=O)Nc2cccc(C(C)=O)c2)CC1,104 to 106 °C
18,O=C(O)CCNC(=O)C1CC1,107 to 109 °C
19,Nc1ccc(Cl)cc1C(=O)c1ccc[nH]1,149 to 151 °C
